The assay addresses T1, KRAS-G12D and SOS1 (Homo sapiens, UniProt P01116, G12D).
T1 construct: purchased
The experiment in a line: Inhibition of KRAS-G12D/SOS1 binding (Cisbio binding kit, 665/615 ratio), Effect Embodiment A. The conditions noted are these: read-out: GTP-KRAS-G12D:SOS1 IC50. Here is the method:
Similarly, the first dilution point of the compound to be tested was its storage solution, and the solution was 3-fold diluted, with 11+0 points of dilution. Echo was used to transfer 0.2 μL gradient diluted solution of the compounds into a 384-well plate, with 2 duplicated wells for each compound, and the final concentration of DMSO was 1%. The solution was centrifuged for 1 min at 1000 rpm/min.
IC50 of the compounds was fitted by Graphpad Prism 8 nonlinear regression equation: […]
The IC50 (half inhibitory concentration) of the compound was obtained by using the following nonlinear fitting formula: […]
T1 sequence (P01116 1-188 isoform P01116-2 G12D): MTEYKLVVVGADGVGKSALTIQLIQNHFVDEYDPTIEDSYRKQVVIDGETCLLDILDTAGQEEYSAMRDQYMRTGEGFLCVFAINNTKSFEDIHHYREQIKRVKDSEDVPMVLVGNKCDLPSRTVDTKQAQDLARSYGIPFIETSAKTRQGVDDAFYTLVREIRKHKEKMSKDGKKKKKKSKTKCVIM
In the case of `CN(C)C1CN(c2nc(N3CC4CCC(C3)N4)c3cc(Cl)c(-c4cc(O)cc5cccc(F)c45)c(F)c3n2)C1` (single isomer, unassigned) [Compound 64a, 4-((S or R)-4-((1R,5S)-3,8-diazabicyclo[3.2.1]octan-3-yl)-6-chloro-2-(3-(dimethylamino)azetidin-1-yl)-8-fluoroquinazolin-7-yl)-5-fluoronaphthalen-2-ol], the IC50 was determined as 31.7 µM.
The same measure for `CN(C)C1CN(c2nc(N3CC4CCC(C3)N4)c3cc(Cl)c(-c4cc(O)cc5cccc(Cl)c45)c(F)c3n2)C1` (single isomer, unassigned) [Compound 65a, 4-((S or R)-4-((1R,5S)-3,8-diazabicyclo[3.2.1]octan-3-yl)-6-chloro-2-(3-(dimethylamino)azetidin-1-yl)-8-fluoroquinazolin-7-yl)-5-chloronaphthalen-2-ol]: 44.6 µM.
The figure for `Oc1cc(-c2c(Cl)cc3c(N4CC5CCC(C4)N5)nc(OCCCN4CCCCC4)nc3c2F)c2ccccc2c1` (single isomer, unassigned) [Compound 66b, 4-((R or S)-4-((1R,5S)-3,8-diazabicyclo[3.2.1]octan-3-yl)-6-chloro-8-fluoro-2-(3-(piperidin-1-yl)propoxy)quinazolin-7-yl)naphthalen-2-ol] is 18 µM.
The same measure for `CN(C)C1CN(c2nc(N=S3(=O)CCC(N)CC3)c3cc(Cl)c(-c4cc(O)cc5ccccc45)c(F)c3n2)C1` (single isomer, unassigned) [Compound 72a, (4R or S)-4-amino-1-(((R or S)-6-chloro-2-(3-(dimethylamino)azetidin-1-yl)-8-fluoro-7-(3-hydroxynaphthalen-1-yl)quinazolin-4-yl)imino)hexahydro-1-thiopyran 1-oxide]: above 200 µM; for `CN(C)C1CN(c2nc(N=S3(=O)CCC(N)CC3)c3cc(Cl)c(-c4cc(O)cc5ccccc45)c(F)c3n2)C1` (single isomer, unassigned) [Compound 72b, (4R or S)-4-amino-1-(((S or R)-6-chloro-2-(3-(dimethylamino)azetidin-1-yl)-8-fluoro-7-(3-hydroxynaphthalen-1-yl)quinazolin-4-yl)imino)hexahydro-1-thiopyran 1-oxide]: 155 µM.
On to `CN(C)C1CN(c2nc(N=S3(=O)CCC(N)CC3)c3cc(Cl)c(-c4cc(O)cc5ccccc45)c(F)c3n2)C1` (single isomer, unassigned) [Compound 72c, (4S or R)-4-amino-1-(((R or S)-6-chloro-2-(3-(dimethylamino)azetidin-1-yl)-8-fluoro-7-(3-hydroxynaphthalen-1-yl)quinazolin-4-yl)imino)hexahydro-1-thiopyran 1-oxide], for which the IC50 was above 200 µM.
The figure for `CN(C)C1CN(c2nc(N=S3(=O)CCC(N)CC3)c3cc(Cl)c(-c4cc(O)cc5ccccc45)c(F)c3n2)C1` (single isomer, unassigned) [Compound 72d, (4S or R)-4-amino-1-(((S or R)-6-chloro-2-(3-(dimethylamino)azetidin-1-yl)-8-fluoro-7-(3-hydroxynaphthalen-1-yl)quinazolin-4-yl)imino)hexahydro-1-thiopyran 1-oxide] is 176 µM.
The same measure for `CN(C)CCCn1c(=O)nc(N2CC3CCC(C2)N3)c2cc(Cl)c(-c3cc(O)cc4ccccc34)c(F)c21` (single isomer, unassigned) [Compound 74a, 4-((1R,5S)-3,8-diazabicyclo[3.2.1]octan-3-yl)-6-chloro-1-(3-(dimethylamino)propyl)-8-fluoro-7-((S or R)-3-hydroxynaphthalen-1-yl)quinazolin-2(1H)-one]: 100 µM; for `CN(C)CCCn1c(=O)nc(N2CC3CCC(C2)N3)c2cc(Cl)c(-c3cc(O)cc4ccccc34)c(F)c21` (single isomer, unassigned) [Compound 74b, 4-((1R,5S)-3,8-diazabicyclo[3.2.1]octan-3-yl)-6-chloro-1-(3-(dimethylamino)propyl)-8-fluoro-7-((R or S)-3-hydroxynaphthalen-1-yl)quinazolin-2(1H)-one]: above 200 µM.

Source of the values: patent publication US20230365563A1, “QUINAZOLINE COMPOUND AND APPLICATION THEREOF” (SHANGHAI PHARMACEUTICALS HOLDING CO., LTD., priority 2020, published 2023).
